Measurements published in patent US20240368159A1, “HPK1 DEGRADERS, COMPOSITIONS COMPRISING THE HPK1 DEGRADER, AND METHODS OF USING THE SAME” (BIOFRONT LTD, priority 2021, published 2024).

Tests used:
[1] = biological target: T1, HPK1 protein (Homo sapiens, UniProt Q92918); experiment: HPK1 enzyme inhibition assay (ADP-Glo); assay type: biochemical; settings: MBP substrate, ATP, ADP-Glo readout
T1 construct: purchased Signal Chem M23-11G-10
T1 sequence (Q92918 1-346 limits assumed): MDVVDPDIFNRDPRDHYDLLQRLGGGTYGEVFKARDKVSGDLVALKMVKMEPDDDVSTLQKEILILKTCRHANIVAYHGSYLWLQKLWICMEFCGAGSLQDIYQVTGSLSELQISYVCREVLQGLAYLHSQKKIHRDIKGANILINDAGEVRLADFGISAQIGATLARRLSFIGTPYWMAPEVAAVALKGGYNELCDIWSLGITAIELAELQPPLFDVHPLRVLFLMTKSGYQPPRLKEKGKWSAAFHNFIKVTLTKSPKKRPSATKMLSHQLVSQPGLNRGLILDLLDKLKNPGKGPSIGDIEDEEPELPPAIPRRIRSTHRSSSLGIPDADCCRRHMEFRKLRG
Protocol: The compound was dissolved in 100% DMSO at the concentration of 10 mM. The HPK1 protein was purchased from Signal Chem (M23-11G-10). 2.5 μL per well of 2×HPK1 protein was added to assay plate containing the test compound, centrifuged at 1500 rpm for 1 minute, and then incubated at 25° C. for 60 minutes. MBP protein was purchased from Signal Chem (M42-51N) and ATP was purchased from Promega (V9102). The two were added 2.5 μL per well mixture of 2×MBP (0.2 ug/ul) and ATP (20 μM), centrifuged at 1500 rpm for 1 minute, then incubated at 25° C. for 60 minutes. Then added 5 μL of ADP-Glo from Promega (V9102) to the assay plate and depleted the unconsumed ATP for 60 minutes. Then centrifuged at 1500 rpm for 1 minute and incubated at 25° C. for 60 minutes. Finally, 10 μL of the kinase assay reagent from Promega (V9102) was added to the assay plate to convert ADP to ATP, centrifuged at 1500 rpm for 1 minute, incubate at 25° C. for 40 minutes. After 40 minutes incubation, the […] was determined. Based on the results, the IC50 value of the compound was calculated.

[2] = test system: HPK1 p-SLP-76; experiment: HPK1 p-SLP-76 inhibition assay in human PBMC (HTRF); assay type: cell-based; settings: 6 h compound, anti-CD3 stimulation 20 min
Protocol: Human PBMC were purchased from OriCells (FPB004F-C). Before compound treatment, PBMC were starved in PRMI-1640 medium supplemented with 0.5% FBS overnight. The cell density was adjusted to 1*10^7 cells/mL in assay medium (RPMI-1640 no phenol red with 0.5% FBS) and 16 μL cell suspension was transferred per well to a 384-well plate (Corning #3765). 6× solution of test compound was prepared in assay medium and 4 μL was added per well to the 384-well plate. The plate was then incubated at 37° C., 5% CO2 for 6 h. PBMC in 384-well plate were stimulated with anti-CD3 (BD Biosciences #555329, final conc. is 10 ug/mL) for 20 min at 37° C., 5% CO2 by adding 4 μL 6× antibody solution per well. Phospho-SLP76 HTRF kit was purchased from Cisbio (63ADK076PEH). 8 μL 4× Lysis Buffer was added to 384-well plate after anti-CD3 stimulation. The plate was centrifuged at 1,000 rpm for 1 min, shaken at 250 rpm for 60 min and centrifuged again at 1,000 rpm for 5 min. Afterwards the cell lysates were transferred to the assay plate (Greiner #784075) with 16 μL per well. 4 μL detection antibody mix per well prepared in Detection Buffer was added to the assay plate, followed by centrifugation at 1,000 rpm for 1 min and incubation at 25° C. overnight.

O=C1CCC(N2C(=O)c3ccc(C4CCN(CCCN5CCN(c6cccc(-c7cnc8[nH]cc(C9CC9)c8c7Cl)c6)C(=O)C5)CC4)cc3C2=O)C(=O)N1 (stereo not drawn) [Example 71, 5-(1-(3-(4-(3-(4-chloro-3-cyclopropyl-1H-pyrrolo[2,3-b]pyridin-5-yl)phenyl)-3-oxopiperazin-1-yl)propyl)piperidin-4-yl)-2-(2,6-dioxopiperidin-3-yl) isoindoline-1,3-dione]
IC50 [1]: ≤ 10 nM | IC50 [2]: ≤ 300 nM

CCc1c[nH]c2ncc(-c3cccc(N4CCN(C(=O)CCCCCCCOc5cccc6c5CN(C5CCC(=O)NC5=O)C6=O)CC4=O)c3)c(Cl)c12 (stereo not drawn) [Example 1]
IC50 [1]: 10 to 100 nM | IC50 [2]: 3000 to 10000 nM

O=C1CCC(N2C(=O)c3ccc(C4=CCN(CCCN5CCN(c6cccc(-c7cnc8[nH]cc(C9CC9)c8c7Cl)n6)C(=O)C5)CC4)cc3C2=O)C(=O)N1 (stereo not drawn) [Example 85, 5-(1-(3-(4-(6-(4-chloro-3-cyclopropyl-1H-pyrrolo[2,3-b]pyridin-5-yl)pyridin-2-yl)-3-oxopiperazin-1-yl)propyl)-1,2,3,6-tetrahydropyridin-4-yl)-2-(2,6-dioxopiperidin-3-yl)isoindoline-1,3-dione]
IC50 [1]: ≤ 10 nM | IC50 [2]: 300 to 3000 nM

O=C1CCC(N2C(=O)c3ccc(C4=CCN(CCCN5CCN(c6cccc(-c7cnc8[nH]cc(C9CC9)c8c7Cl)c6)C(=O)C5)CC4)cc3C2=O)C(=O)N1 (stereo not drawn) [Example 70, 5-(1-(3-(4-(3-(4-chloro-3-cyclopropyl-1H-pyrrolo[2,3-b]pyridin-5-yl)phenyl)-3-oxopiperazin-1-yl)propyl)-1,2,3,6-tetrahydropyridin-4-yl)-2-(2,6-dioxopiperidin-3-yl)isoindoline-1,3-dione]
IC50 [1]: 10 to 100 nM | IC50 [2]: 300 to 3000 nM

O=C1CCC(N2Cc3cc(C4CCN(CCCN5CCN(c6cccc(-c7cnc8[nH]cc(C9CC9)c8c7Cl)n6)C(=O)C5)CC4)ccc3C2=O)C(=O)N1 (stereo not drawn) [Example 82, 3-(5-(1-(3-(4-(6-(4-chloro-3-cyclopropyl-1H-pyrrolo[2,3-b]pyridin-5-yl)pyridin-2-yl)-3-oxopiperazin-1-yl)propyl)piperidin-4-yl)-1-oxoisoindolin-2-yl)piperidine-2,6-dione]
IC50 [1]: ≤ 10 nM | IC50 [2]: ≤ 300 nM

O=C1CCC(N2C(=O)c3ccc(N4CCN(CCCS(=O)(=O)N5CCN(c6cccc(-c7cnc8[nH]cc(CC(F)F)c8c7Cl)c6)C(=O)C5)CC4)cc3C2=O)C(=O)N1 (stereo not drawn) [Example 106]
IC50 [1]: ≤ 10 nM | IC50 [2]: 300 to 3000 nM

O=C1CCC(Nc2ccc(C3CCN(CCCS(=O)(=O)N4CCN(c5cccc(-c6cnc7[nH]cc(C8CC8)c7c6Cl)c5)C(=O)C4)CC3)cc2)C(=O)N1 (stereo not drawn) [Example 104]
IC50 [1]: ≤ 10 nM | IC50 [2]: ≤ 300 nM

Cn1nc(C2CCC(=O)NC2=O)c2ccc(C3CCN(CCCN4CCN(c5cccc(-c6cnc7[nH]cc(C8CC8)c7c6Cl)c5)C(=O)C4)CC3)cc21 (stereo not drawn) [Example 92, 3-(6-(1-(3-(4-(3-(4-chloro-3-cyclopropyl-1H-pyrrolo[2,3-b]pyridin-5-yl)phenyl)-3-oxopiperazin-1-yl)propyl)piperidin-4-yl)-1-methyl-1H-indazol-3-yl)piperidine-2,6-dione]
IC50 [1]: ≤ 10 nM | IC50 [2]: 300 to 3000 nM

O=C1CCC(N2C(=O)c3ccc(C4CCN(CCCN5CCN(c6cccc(-c7cnc8[nH]cc(C9CC9)c8c7Cl)n6)C(=O)C5)CC4)cc3C2=O)C(=O)N1 (stereo not drawn) [Example 84, 5-(1-(3-(4-(6-(4-chloro-3-cyclopropyl-1H-pyrrolo[2,3-b]pyridin-5-yl)pyridin-2-yl)-3-oxopiperazin-1-yl)propyl)piperidin-4-yl)-2-(2,6-dioxopiperidin-3-yl)isoindoline-1,3-dione]
IC50 [1]: ≤ 10 nM | IC50 [2]: ≤ 300 nM

O=C1CCN(c2cnc3cc(C4=CCN(CCCN5CCN(c6cccc(-c7cnc8[nH]cc(C9CC9)c8c7Cl)c6)C(=O)C5)CC4)ccn23)C(=O)N1 [Example 93, 1-(7-(1-(3-(4-(3-(4-chloro-3-cyclopropyl-1H-pyrrolo[2,3-b]pyridin-5-yl)phenyl)-3-oxopiperazin-1-yl)propyl)-1,2,3,6-tetrahydropyridin-4-yl)imidazo[1,2-a]pyridin-3-yl)dihydropyrimidine-2,4 (1H,3H)-dione]
IC50 [1]: ≤ 10 nM | IC50 [2]: 300 to 3000 nM

O=C1CCC(Nc2ccc(N3CCN(CCCS(=O)(=O)N4CCN(c5cccc(-c6cnc7[nH]cc(C8CC8)c7c6Cl)c5)C(=O)C4)CC3)c(F)c2)C(=O)N1 (stereo not drawn) [Example 105, 3-((4-(4-(3-((4-(3-(4-chloro-3-cyclopropyl-1H-pyrrolo[2,3-b]pyridin-5-yl)phenyl)-3-oxopiperazin-1-yl)sulfonyl)propyl)piperazin-1-yl)-3-fluorophenyl)amino)piperidine-2,6-dione]
IC50 [1]: ≤ 10 nM | IC50 [2]: ≤ 300 nM

O=C1CCC(N2Cc3cc(C4=CCN(CCCN5CCN(c6cccc(-c7cnc8[nH]cc(C9CC9)c8c7Cl)n6)C(=O)C5)CC4)ccc3C2=O)C(=O)N1 (stereo not drawn) [Example 83]
IC50 [1]: ≤ 10 nM | IC50 [2]: ≤ 300 nM

O=C1CCC(c2ccc(OC3CCN(CCCN4CCN(c5cccc(-c6cnc7[nH]cc(C8CC8)c7c6Cl)c5)C(=O)C4)CC3)cc2)C(=O)N1 (stereo not drawn) [Example 86]
IC50 [1]: ≤ 10 nM | IC50 [2]: 300 to 3000 nM

CCc1c[nH]c2ncc(-c3cccc(N4CCN(C(=O)CCOCCOCCOc5cccc6c5CN(C5CCC(=O)NC5=O)C6=O)CC4=O)c3)c(Cl)c12 (stereo not drawn) [Example 12, 3-(4-(2-(2-(3-(4-(3-(4-chloro-3-ethyl-1H-pyrrolo[2,3-b]pyridin-5-yl)phenyl)-3-oxopiperazin-1-yl)-3-oxopropoxy)ethoxy)ethoxy)-1-oxoisoindolin-2-yl)piperidine-2,6-dione]
IC50 [1]: 10 to 100 nM | IC50 [2]: 3000 to 10000 nM

O=C1CCC(N2C(=O)c3ccc(N4CC(CCOC(=O)N5CCN(c6cccc(-c7cnc8[nH]cc(CC(F)F)c8c7Cl)c6)C(=O)C5)C4)cc3C2=O)C(=O)N1 (stereo not drawn) [Example 91]
IC50 [1]: 10 to 100 nM | IC50 [2]: > 10000 nM

O=C1CCC(c2ccc(C3CCN(CCCCN4CCN(c5cccc(-c6cnc7[nH]cc(C8CC8)c7c6Cl)c5)C(=O)C4)CC3)cc2)C(=O)N1 (stereo not drawn) [Example 87]
IC50 [1]: ≤ 10 nM | IC50 [2]: ≤ 300 nM

O=C1CCC(N2C(=O)c3ccc(N4CCN(CCCN5CCN(c6cccc(-c7cnc8[nH]cc(C9CC9)c8c7Cl)n6)C(=O)C5)CC4)cc3C2=O)C(=O)N1 (stereo not drawn) [Example 80, 5-(4-(3-(4-(6-(4-chloro-3-cyclopropyl-1H-pyrrolo[2,3-b]pyridin-5-yl)pyridin-2-yl)-3-oxopiperazin-1-yl)propyl)piperazin-1-yl)-2-(2,6-dioxopiperidin-3-yl)isoindoline-1,3-dione]
IC50 [1]: ≤ 10 nM | IC50 [2]: ≤ 300 nM

O=C1CCC(N2Cc3cc(N4CCN(CCCN5CCN(c6cccc(-c7cnc8[nH]cc(C9CC9)c8c7Cl)n6)C(=O)C5)CC4)ccc3C2=O)C(=O)N1 (stereo not drawn) [Example 81, 3-(5-(4-(3-(4-(6-(4-chloro-3-cyclopropyl-1H-pyrrolo[2,3-b]pyridin-5-yl)pyridin-2-yl)-3-oxopiperazin-1-yl)propyl)piperazin-1-yl)-1-oxoisoindolin-2-yl)piperidine-2,6-dione]
IC50 [1]: ≤ 10 nM | IC50 [2]: ≤ 300 nM
